Laboratory results from patent publication EP0715517B1, “ESTRENE STEROIDS AS NEU[…] CHANGE IN HUMAN HY[…] AND RELATED PHARMACEUTICAL COMPOSITIONS” (priority 1993, dated 1994).
Entries after “also recorded” stand apart in the source; their conditions may differ.

Tests used:
VNO [1] = conditions: 2% lidocaine applied to the respiratory epithelium of the nasal septum; preliminary evidence, Monti-Bloch and Grosser 1991; cited from earlier work
[2] = test system: olfactory epithelium (OE); experiment: Electro-olfactgram (EOG) (Example 25); assay type: in vivo, human; conditions: 20 subjects (10 males, 10 females); 200 fmoles vomeropherins, 400 fmoles olfactants; one second pulses; Fig. 7A
Excerpt: (§1) The stimulation and recording system consists of a "multifunctional miniprobe" described elsewhere (Monti-Bloch, L. and Grosser, B.l. (1991) "Effect of putative pheromones on the electrical activity of the human vomeronasal organ and olfactory epithelium," J. Steroid Biochem. Molec. Biol. 39:573-582.). The recording electrode is a 0.3 mm silver ball attached to a small (0.1 mm) silver wire insulated with Teflon© the surface of the electrode is first treated to produce a silver chloride interface, and is then covered with gelatin It is positioned within a small caliber Teflon© catheter (dia = […]) such that the tip of the electrode protrudes approximately 2 mm. The Teflon© catheter is 10 cm in length and constitutes the terminal extension for a multichannel delivery system which delivers a continuous air stream carrying discreet pulses of chemosensory stimuli. The air stream first passes into a small chamber and is bubbled through a solution containing either a vomeropherin or an olfactant in a diluent or the diluent alone. A solenoid is used to rapidly redirect the air stream from the chamber to a route which bypasses the chamber. This creates a discreet pulse of stimulant in the air stream. A second, outer Teflon® tube with a diameter of 2 mm surrounds the catheter-electrode assemblage, and its central end is connected to an aspirator that provides continuous suction of 3ml/s. This concentric arrangement of the outer suction tube allows the emitted chemosensory stimuli to be localized to an area we call a "minifield" (approx. dia = 1 mm), and it avoids diffusion of substances either to the area outside the intended stimulation site or into the respiratory system. The entire stimulating and recording assemblage may be positioned either on the neurosensory epithelium within the VNO, or on the surface of the olfactory or respiratory epithelium. Electro-vomeronasogram (EVG): Recordings are carried out in a quiet room with the subject supine; the multifunctional miniprobe is initially stabilized within the nasal cavity using a nasal retractor placed in the vestibule. Reference and ground electrodes consist of silver discs (8 mm), both of which are positioned on the glabella.
Electrical signals from the recording electrode are fed to a DC amplifier after which they are digitized, computer monitored, and stored. The peak-to-peak amplitude of the signals is measured, and the area under the depolarization wave is integrated, while continuously monitoring the signal both on the computer screen and on a digital oscilloscope. […]
Effects of Vomeropherins on the EOG: The summated receptor potential from the olfactory epithelium (OE) was recorded in 20 subjects: 10 males and 10 females. […]

VNO [3] = experiment: Electro-vomeronasogram (EVG) (Example 25); assay type: in vivo, human; conditions: 100 fmoles
Description: The following electrophysiological studies were performed in 60 clinically normal human volunteers of both sexes (30 male and 30 female) whose ages ranged from 20 to 45 years. No anesthetics were used, and female subjects were excluded if pregnant.
as §1
The entrance to the VNO, or vomeronasal pit, is identified by first dilating the nasal aperture and vestibule. A 6x magnifying binocular loupe with halogen illumination is then used to introduce the tip of the Teflon® catheter and recording electrode assemblage into the VNO opening where it is stabilized at an approximate depth of 1 mm within the vomeronasal passage. Optimal placement of the recording electrode is signaled after testing for an adequate depolarization in response to a test substance.
Electrical signals from the recording electrode are fed to a DC amplifier after which they are digitized, computer monitored, and stored. The peak-to-peak amplitude of the signals is measured, and the area under the depolarization wave is integrated, while continuously monitoring the signal both on the computer screen and on a digital oscilloscope. Artifacts produced by respiratory movements are deleted by training the subjects to practice mouth breathing with velopharyngeal closure. Chemosensory Stimulants: Olfactory test substances are cineole, and 1-carvone; vomeropherins are A, B, C, E and F. (Vomeropherins were supplied by Pherin Corporation, Menlo Park, California), Samples of vomeropherins In concentration of 25-800 fmoles are delivered in the continuous air stream for durations from 300 milliseconds to 1 second. Usually, intervals of 3 to 5 minutes separated each series of short test pulses. […]

VNO [4] = experiment: Electrodermal activity (EDA) after VNO stimulation (Example 25); assay type: in vivo, human; conditions: female subjects; p<0.01, n = 30
Description: (§2) Cortical evoked activity was induced by VNO stimulation with vomeropherins, and olfactory stimulation with odorants delivered in 300 ms air pulses. It was recorded using standard electroencephalographic (EEG) electrodes placed at positions Cz-A1 and Tz-A1 of the international […] system; the ground electrode was placed on the mastoid process. Electrodermal activity (EDA) was recorded using standard 8 mm silver electrodes in contact with palmar skin of the medial and ring fingers respectively, through a conductive gel interface. Skin temperature (ST) was recorded by a small (1.0 mm) thermistor probe placed in the right ear lobe. Peripheral arterial pulse (PAP) was monitored with a plethysmograph attached to the tip of the index finger. Respiratory frequency (RF) was measured with an adjustable strain gauge placed around the lower thorax. All electrical signals were DC amplified, digitized (MP-100, Biopac Systems) and continuously monitored utilizing a computer. Statistical Analysis: EVGs or EOGS, peak-to-peak changes and frequency changes of other parameters were measured and statistically analyzed. The significance of the results was determined by either using paired t-tests or analysis of variance (ANOVA). […] Recordings of the EVG were performed on 30 men and 30 women (ages 20 to 45). Vomeropherins were diluted and applied as 1 second pulses to the VNO with […] intervals between pulses when questioned, the subjects were not able to "smell" or otherwise consciously detect any of the vomeropherins.

VNO [5] = experiment: Cortical evoked activity (EEG, alpha cortical activity) after VNO stimulation (Example 25); assay type: in vivo, human
Description: as §2
[…] […] Synchronization of the EEG was sustained for 1.5 to 2.7 minutes after application of a single pulse of active substance.

VNO [6] = experiment: Skin temperature (ST) after VNO stimulation (Example 25); assay type: in vivo, human
Description: as §2

VNO [7] = experiment: Comparison of the change in receptor potential induced by two Estrene steroids (Example 23); assay type: in vivo, human; conditions: 60 picograms; a subject; Fig. 5
Description: 60 picograms of each steroid and of a propylene glycol control were administered to a subject as described in Example 21.

CCN(CC)CC(=O)Nc1c(C)cccc1C [lidocaine]
effect of local anesthetic on the EVG (VNO [1]): neither blocks nor diminishes the EVG

C[C@@]12C=CC[C@H]1[C@@H]1CCC3=CC(=O)CC[C@]3(C)[C@H]1CC2 [B, Androsta-4,16-dien-3-one]
EOG local response of the OE (in words) [2]: the only vomeropherin having significant effect in the OE; also recorded: significant (p<0.01) local response | EVG response in the male VNO (in words) (VNO [3]; male subjects, Fig. 6A and Fig. 7): significantly reduced responses in the male VNO | decrease in EDA (VNO [4]): greater decrease in EDA than A or C | alpha cortical activity (VNO [5]; females, single pulse (200 fmoles), Fig. 6F): increased alpha cortical | skin temperature (ST) (VNO [6]; 30 female subjects, p<0.01, compared to A and C, Fig. 6H): significant increase in skin temperature

COc1ccc2c(c1)CC[C@@H]1[C@@H]2CC[C@]2(C)C=CC[C@@H]12 [D, 3-Methoxy-Estra-1,3,5(10),16-tetraene]
EVG average response (mean) (VNO [3]; male subjects (ages 20 to 38), 1 second pulses, p<0.01, Fig. 6A): 15.1 mV | change in receptor potential (VNO [7]): greater change in receptor potential than did 1,3,5(10),16-Estratetraen-3-yl acetate | alpha cortical activity (VNO [5]; males, 200 fmoles, air pulses 300 ms to 1 sec, Fig. 6E): significantly increased alpha cortical activity; also recorded: strongest effect | latency of increase in alpha cortical activity (VNO [5]; males, 200 fmoles, Fig. 6E): 270 to 380 ms | skin temperature (ST) (VNO [6]; 30 male subjects, p<0.01, Fig. 6G): significant temperature decrease
